Results from patent US12509653B2, “Organ chip to model mammalian joint” (University of Pittsburgh—Of the Commonwealth System of …, priority 2017, dated 2025).

Columns and labels:
[1] = test system: chondrocytes and osteoblasts in the bioreactor; assay: RT-PCR marker expression in cartilage and bone chambers of the bioreactor under hormone stimulation; assay type: cell-based; conditions: progesterone progressively added to estradiol (week 3 and 4); higher when hormones directly applied to cartilage
Experimental: Differential expression of markers (as determined by RT-PCR) was evaluated in a control medium that contained no estrogen or progesterone (first bar), and then different concentrations of hormones supplied to the chambers during week 1 (w1: 0.1 nM estradiol), week 2 (w2: 1 nM estradiol), week 3 (w3: 1 nM estradiol and 10 nM progesterone), and week 4 (w4: 0.1 nM estradiol and 50 nM progesterone). Differential expression of markers was determined in a control medium that contained no estrogen or progesterone (first bar), and then different concentrations of hormones supplied to the cartilage chamber during week 1 (w1: 0.1 nM estradiol), week 2 (w2: 1 nM estradiol), week 3 (w3: 1 nM estradiol and 10 nM progesterone), and week 4 (w4: 0.1 nM estradiol and 50 nM progesterone).

[2] = test system: synovial cells (SM); assay: IL-1β stimulation of synovial cells in the microJoint (OA model), gene expression; assay type: cell-based, human; conditions: 10 ng/mL, 24 h
Experimental: To model OA in the microJoint, the pro-inflammatory cytokine interleukin (IL)-1β (10 ng/mL) was used to stimulate synovial cells for 24 h. Afterwards, IL-1β was withdrawn and inflamed synovium-conditioned medium was perfused through cartilage and FP tissues. […] M0/M1 macrophages can be introduced into the different tissues to investigate their interactions with other cells and implications on OA pathologies.
Different engineered joint tissues, including osteochondral complex (bone and cartilage), synovium, and fat pad were prepared as modules for convenient integration in the bioreactor. After maturation, they were integrated into a bioreactor (FIG. 28). Their interconnection was guided via directional fluidic flow of the culture medium to simulate in vivo physiology (FIG. 29). The bioreactors and accessories were manufactured by 3D printing. Micro-tissues were engineered by encapsulating P5 human MSCs in UV-photocrosslinked 15% methacrylated gelatin (GelMA), and differentiating and maturing them in different types of induction media. The health of individual tissues was assessed by real-time polymerase chain reaction (RT-PCR), histology and enzyme-linked immunosorbent assay (ELISA).

Compound | cartilage anabolic markers, progesterone added [1] | expression levels of major catabolic genes in SM [2]
CC(=O)[C@H]1CC[C@H]2[C@@H]3CCC4=CC(=O)CC[C@]4(C)[C@H]3CC[C@]12C [progesterone] | downregulation is still present | –
IL-1β: pro-inflammatory cytokine interleukin (IL)-1β used to stimulate synovial cells | – | significantly upregulated
